In PubChem BioAssay (NCI):
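Step 1: Grow cells in 96-well plates. Step 2: Expose to compound for 48 hours at 5 concentrations. Step 3: Interpolate endpoints linearly; if unreached, use highest concentration. TGI marks complete inhibition of growth.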

Experiments:
Assay in all cases: NCI tumour cell line growth inhibition, 48 h
SR leukemia = test system: SR leukemia
NCI/ADR-RES ovarian = test system: NCI/ADR-RES ovarian
KM12 colon = test system: KM12 colon
OVCAR-8 ovarian = test system: OVCAR-8 ovarian
SW-620 colon = test system: SW-620 colon
TK-10 renal = test system: TK-10 renal
UACC-257 melanoma = test system: UACC-257 melanoma
NCI-H522 lung = test system: NCI-H522 lung
MCF7 breast = test system: MCF7 breast
SK-MEL-28 melanoma = test system: SK-MEL-28 melanoma
U251 CNS = test system: U251 CNS
SN12C renal = test system: SN12C renal
SF-295 CNS = test system: SF-295 CNS
MDA-MB-435 = test system: MDA-MB-435
M14 melanoma = test system: M14 melanoma
UACC-62 melanoma = test system: UACC-62 melanoma
UO-31 renal = test system: UO-31 renal
RXF 393 renal = test system: RXF 393 renal
OVCAR-5 ovarian = test system: OVCAR-5 ovarian
MDA-MB-231 breast = test system: MDA-MB-231 breast
DU-145 prostate = test system: DU-145 prostate
HCT-116 colon = test system: HCT-116 colon
ACHN renal = test system: ACHN renal
T-47D breast = test system: T-47D breast
NCI-H23 lung = test system: NCI-H23 lung
SK-MEL-2 melanoma = test system: SK-MEL-2 melanoma
A549 NSCLC = test system: A549 NSCLC
PC-3 prostate = test system: PC-3 prostate
786-0 renal = test system: 786-0 renal
SNB-75 CNS = test system: SNB-75 CNS
HOP-62 NSCLC = test system: HOP-62 NSCLC
HCT-15 colon = test system: HCT-15 colon
BT-549 breast = test system: BT-549 breast
OVCAR-3 ovarian = test system: OVCAR-3 ovarian
COLO 205 colon = test system: COLO 205 colon
IGROV1 ovarian = test system: IGROV1 ovarian
SK-MEL-5 melanoma = test system: SK-MEL-5 melanoma
HOP-92 NSCLC = test system: HOP-92 NSCLC
SK-OV-3 ovarian = test system: SK-OV-3 ovarian
MDA-N = test system: MDA-N
OVCAR-4 ovarian = test system: OVCAR-4 ovarian
SF-268 CNS = test system: SF-268 CNS
LOX IMVI melanoma = test system: LOX IMVI melanoma
MOLT-4 leukemia = test system: MOLT-4 leukemia
NCI-H226 lung = test system: NCI-H226 lung
RPMI-8226 leukemia = test system: RPMI-8226 leukemia
A498 renal = test system: A498 renal
MALME-3M melanoma = test system: MALME-3M melanoma
HS 578T breast = test system: HS 578T breast
K-562 leukemia = test system: K-562 leukemia
EKVX NSCLC = test system: EKVX NSCLC
SNB-19 CNS = test system: SNB-19 CNS
HT29 colon = test system: HT29 colon
CAKI-1 renal = test system: CAKI-1 renal
HL-60(TB) leukemia = test system: HL-60(TB) leukemia
SF-539 CNS = test system: SF-539 CNS
NCI-H460 lung = test system: NCI-H460 lung
CCRF-CEM leukemia = test system: CCRF-CEM leukemia
HCC-2998 colon = test system: HCC-2998 colon

Measured: TGI

O=C1c2ccccc2C(=O)c2c(Nc3cc4c5c(ccc6c7ccc8c9c(cc(Nc%10cccc%11c%10C(=O)c%10ccccc%10C%11=O)c(c3c56)c97)-c3ccccc3C8=O)C(=O)c3ccccc3-4)cccc21
75.2 µM: SF-268 CNS
55 µM: U251 CNS
41.5 µM: SNB-75 CNS
96.1 µM: TK-10 renal
44.6 µM: HOP-62 NSCLC
51.1 µM: SK-OV-3 ovarian
65.1 µM: A498 renal
61.1 µM: HS 578T breast
not listed: HL-60(TB) leukemia | SF-539 CNS | NCI-H460 lung | CCRF-CEM leukemia | HCC-2998 colon
> 100 µM: all other assays above

O=C(CCc1ccccc1)n1cccc1CO
not listed: HOP-92 NSCLC
> 100 µM: all other assays above
